Data from patent publication US20170050957A1, “4-AMINO-6-(HETEROCYCLIC)PICOLINATES AND 6-AMINO-2-(HETEROCYCLIC)PYRIMIDINE-4-CARBOXYLATES AND THEIR USE AS HERBICIDES” (Dow AgroSciences LLC, priority 2013, published 2017).
Read-outs that look alike come from different tables or passages of the source. One block for each molecule: values may come before it.

How the values were obtained:
[1] = system: Key Grass and Sedge Weeds as well as Grass Crops; assay: Post-emergent Test II herbicidal activity (Table 16); type: in vivo; details: post-emergence, 336 h, 14 d; for pest or weed control at 35 g/ha: 35 g ai/ha; for pest or weed control at 70 g/ha: 70 g ai/ha; for pest or weed control at 140 g/ha: 140 g ai/ha; for pest or weed control at 280 g/ha: 280 g ai/ha
Procedure, shortened: (§1)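 Plants grown in greenhouse (~15 h photoperiod, 23-29 °C day, 22-28 °C night) to first or second true leaf stage, then sprayed post-emergence at 187 L/ha with a high rate and 1/2×, 1/4×, 1/8× and 1/16× dilutions. Injury scored visually after 14 d, 0-100% versus untreated plants.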

[2] = system: Key Broadleaf Weed and Crop Species; assay: Post-emergent Test II herbicidal activity (Table 15); type: in vivo; details: post-emergence, 336 h, 14 d; for pest or weed control at 35 g/ha: 35 g ai/ha; for pest or weed control at 70 g/ha: 70 g ai/ha; for pest or weed control at 140 g/ha: 140 g ai/ha; for pest or weed control at 280 g/ha: 280 g ai/ha
Procedure, shortened: as §1

[3] = Cyperus esculentus, yellow nutsedge (Cyperus esculentus), read-out: Visual Growth Reduction (%) 14 Days After Application, CYPES
[4] = Echinochloa crus-galli, barnyardgrass (Echinochloa crus-galli), read-out: Visual Growth Reduction (%) 14 Days After Application, ECHCG
[5] = Oryza sativa, rice (Oryza sativa), read-out: Visual Growth Reduction (%) 14 Days After Application, ORYSA
[6] = Setaria faberi, giant foxtail (Setaria faberi), read-out: Visual Growth Reduction (%) 14 Days After Application, SETFA
[7] = Triticum aestivum, wheat, spring (Triticum aestivum), read-out: Visual Growth Reduction (%) 14 Days After Application, TRZAS
[8] = Zea mays, maize, corn (Zea mays), read-out: Visual Growth Reduction (%) 14 Days After Application, ZEAMX
[9] = Abutilon theophrasti, velvetleaf (Abutilon theophrasti), read-out: Visual Growth Reduction (%) 14 Days After Application, ABUTH
[10] = Amaranthus retroflexus, redroot pigweed (Amaranthus retroflexus), read-out: Visual Growth Reduction (%) 14 Days After Application, AMARE
[11] = Brassica napus, oilseed rape, canola (Brassica napus), read-out: Visual Growth Reduction (%) 14 Days After Application, BRSNN
[12] = Chenopodium album, lambsquarters (Chenopodium album), read-out: Visual Growth Reduction (%) 14 Days After Application, CHEAL
[13] = Euphorbia heterophylla, wild poinsettia (Euphorbia heterophylla), read-out: Visual Growth Reduction (%) 14 Days After Application, EPHHL
[14] = Helianthus annuus, sunflower (Helianthus annuus), read-out: Visual Growth Reduction (%) 14 Days After Application, HELAN

- melting point: 165 to 167 °C
SMILES: Nc1c(F)c(-c2ccc3occc3c2)nc(C(=O)O)c1Cl [Compound 2.02]
- pest or weed control at 35 g/ha [1, 3]: 0 to 29%
- pest or weed control at 70 g/ha [1, 3]: 0 to 29%
- pest or weed control at 140 g/ha [1, 3]: 0 to 29%
- pest or weed control at 35 g/ha [1, 4]: 85 to 94%
- pest or weed control at 70 g/ha [1, 4]: 85 to 94%
- pest or weed control at 140 g/ha [1, 4]: 95 to 100%
- pest or weed control at 35 g/ha [1, 5]: 0 to 29%
- pest or weed control at 70 g/ha [1, 5]: 0 to 29%
- pest or weed control at 140 g/ha [1, 5]: 0 to 29%
- pest or weed control at 35 g/ha [1, 6]: 60 to 74%
- pest or weed control at 70 g/ha [1, 6]: 60 to 74%
- pest or weed control at 140 g/ha [1, 6]: 75 to 84%
- pest or weed control at 35 g/ha [1, 7]: 0 to 29%
- pest or weed control at 70 g/ha [1, 7]: 30 to 44%
- pest or weed control at 140 g/ha [1, 7]: 45 to 59%
- pest or weed control at 35 g/ha [1, 8]: 95 to 100%
- pest or weed control at 70 g/ha [1, 8]: 95 to 100%
- pest or weed control at 140 g/ha [1, 8]: 95 to 100%
- pest or weed control at 35 g/ha [2, 9]: 45 to 59%
- pest or weed control at 70 g/ha [2, 9]: 85 to 94%
- pest or weed control at 140 g/ha [2, 9]: 85 to 94%
- pest or weed control at 35 g/ha [2, 10]: 75 to 84%
- pest or weed control at 70 g/ha [2, 10]: 95 to 100%
- pest or weed control at 140 g/ha [2, 10]: 95 to 100%
- pest or weed control at 35 g/ha [2, 11]: 0 to 29%
- pest or weed control at 70 g/ha [2, 11]: 30 to 44%
- pest or weed control at 140 g/ha [2, 11]: 30 to 44%
- pest or weed control at 35 g/ha [2, 12]: 95 to 100%
- pest or weed control at 70 g/ha [2, 12]: 95 to 100%
- pest or weed control at 140 g/ha [2, 12]: 95 to 100%
- pest or weed control at 35 g/ha [2, 13]: 75 to 84%
- pest or weed control at 70 g/ha [2, 13]: 95 to 100%
- pest or weed control at 140 g/ha [2, 13]: 95 to 100%
- pest or weed control at 35 g/ha [2, 14]: 75 to 84%
- pest or weed control at 70 g/ha [2, 14]: 85 to 94%
- pest or weed control at 140 g/ha [2, 14]: 95 to 100%

- melting point: 84 to 87 °C
SMILES: COC(=O)c1nc(-c2ccc3occc3c2)cc(N)c1Cl [Compound 2.03]
- pest or weed control at 35 g/ha [1, 3]: 0 to 29%
- pest or weed control at 70 g/ha [1, 3]: 0 to 29%
- pest or weed control at 140 g/ha [1, 3]: 0 to 29%
- pest or weed control at 280 g/ha [1, 3]: 0 to 29%
- pest or weed control at 35 g/ha [1, 4]: 30 to 44%
- pest or weed control at 70 g/ha [1, 4]: 60 to 74%
- pest or weed control at 140 g/ha [1, 4]: 85 to 94%
- pest or weed control at 280 g/ha [1, 4]: 95 to 100%
- pest or weed control at 35 g/ha [1, 5]: 0 to 29%
- pest or weed control at 70 g/ha [1, 5]: 0 to 29%
- pest or weed control at 140 g/ha [1, 5]: 0 to 29%
- pest or weed control at 280 g/ha [1, 5]: 0 to 29%
- pest or weed control at 35 g/ha [1, 6]: 0 to 29%
- pest or weed control at 70 g/ha [1, 6]: 0 to 29%
- pest or weed control at 140 g/ha [1, 6]: 30 to 44%
- pest or weed control at 280 g/ha [1, 6]: 30 to 44%
- pest or weed control at 35 g/ha [1, 7]: 0 to 29%
- pest or weed control at 70 g/ha [1, 7]: 0 to 29%
- pest or weed control at 140 g/ha [1, 7]: 0 to 29%
- pest or weed control at 280 g/ha [1, 7]: 0 to 29%
- pest or weed control at 35 g/ha [1, 8]: 0 to 29%
- pest or weed control at 70 g/ha [1, 8]: 0 to 29%
- pest or weed control at 140 g/ha [1, 8]: 0 to 29%
- pest or weed control at 280 g/ha [1, 8]: 60 to 74%
- pest or weed control at 35 g/ha [2, 9]: 95 to 100%
- pest or weed control at 70 g/ha [2, 9]: 95 to 100%
- pest or weed control at 140 g/ha [2, 9]: 95 to 100%
- pest or weed control at 280 g/ha [2, 9]: 95 to 100%
- pest or weed control at 35 g/ha [2, 10]: 60 to 74%
- pest or weed control at 70 g/ha [2, 10]: 85 to 94%
- pest or weed control at 140 g/ha [2, 10]: 85 to 94%
- pest or weed control at 280 g/ha [2, 10]: 95 to 100%
- pest or weed control at 35 g/ha [2, 11]: 0 to 29%
- pest or weed control at 70 g/ha [2, 11]: 0 to 29%
- pest or weed control at 140 g/ha [2, 11]: 0 to 29%
- pest or weed control at 280 g/ha [2, 11]: 30 to 44%
- pest or weed control at 35 g/ha [2, 12]: 85 to 94%
- pest or weed control at 70 g/ha [2, 12]: 95 to 100%
- pest or weed control at 140 g/ha [2, 12]: 95 to 100%
- pest or weed control at 280 g/ha [2, 12]: 95 to 100%
- pest or weed control at 35 g/ha [2, 13]: 45 to 59%
- pest or weed control at 70 g/ha [2, 13]: 75 to 84%
- pest or weed control at 140 g/ha [2, 13]: 75 to 84%
- pest or weed control at 280 g/ha [2, 13]: 85 to 94%
- pest or weed control at 35 g/ha [2, 14]: 0 to 29%
- pest or weed control at 70 g/ha [2, 14]: 60 to 74%
- pest or weed control at 140 g/ha [2, 14]: 75 to 84%
- pest or weed control at 280 g/ha [2, 14]: 85 to 94%
